Patent US9975853B2, “Tetrahydroisoquinolinone derivatives and their use in the inhibition of the HSP70 protein” (Julius-Maximilians-Universitaet Wuerzburg, priority 2014, dated 2018)
“Also recorded” adds a separate entry of the source.

What was measured:
[1] = target: T1, HSP73 (Homo sapiens, UniProt P11142); assay: Western blot analysis of HSP73 expression in INA-6 cells; assay type: cell-based; details: INA-6, 0.6 μM, with Z-VAD-FMK 50 μM
T1 construct: endogenous in cells; host or cells: INA-6 multiple myeloma cells
Procedure: Western Blot Analysis. Protein expression levels were determined with Western blotting procedures (M. Chatterjee, et al., Blood 2002, 100, 3311-3318). Following separation by SDS-PAGE, proteins were transferred onto nitrocellulose membranes (Schleicher & Schuell, Dassel, Germany) and stained with antibodies against Hsp72, Hsp73, Hsp90 (all from Enzo Life Science, Lörrach, Germany), AIF, lamin A, caspases 9 and 3, PARP (all from Santa Cruz, Heidelberg, Germany). An anti-α tubulin antibody (Sigma, Deisenhofen, Germany) was employed to assess equal loading. Secondary antibodies used were anti-rat (Enzo Life Science), anti-rabbit and anti-mouse (both from GE Healthcare, Little Chalfont, UK). […] The heat shock proteins HSP72 and HSP73 critically interact with HSP90 in order to mediate an essential chaperone function for a multitude of proteins including various signaling intermediates. According to an established HSP72/73-dependent client protein signature and its role for survival in MM, the proposed anti-HSP72/73 effect of trans-7b in the INA-6 multiple myeloma (MM) cell line model was evaluated. […] Lysates were cleared by centrifugation, measured by quantitative protein assay (Bio-Rad, München, Germany) and subjected to SDS gel electrophoresis. […]

[2] = system: INA-6 cells; assay: Viability of INA-6 cells under concomitant treatment with HSP90 inhibitor NVP-AUY922; assay type: cell-based, human; details: AUY922 7.5 nM plus trans-7b 3.5 μM, sublethal concentrations
Procedure: The heat shock protein HSP90, which critically cooperates with HSP72 and HSP73 to mediate a chaperone function for a multitude of proteins, is regarded as a reasonable therapeutic target in MM. […] Therefore, potential effects of a concomitant treatment of trans-7b with the HSP90 inhibitor NVP-AUY922 on viability of INA-6 cells were analyzed. INA-6 cells were incubated either with DMSO (as a solvent control), sublethal concentrations of AUY922 (7.5 nM) or trans-7b (3.5 μM) or with a combination of both. Viability was measured by Annexin V-FITC/propidium iodide double staining (BenderMedSystems, Vienna, Austria) according to the manufacturer's instructions. Cells were washed in PBS, incubated for 15 minutes in 100 ml binding buffer (10 mM HEPES/NaOH, pH 7.4, 140 mM NaCl, 2.5 mM CaCl2) containing 2.5 mL annexin V-FITC mix and 1 mg/ml PI and analyzed by flow cytometry (FACSCalibur/CELLQuest; Becton Dickinson, Heidelberg, Germany). Whereas early apoptosis is characterized by positive annexin V-FITC staining reaction, cells in a late apoptotic stage lose their membrane integrity and additionally incorporate PI. […] Raw data of three independent measurements were set in relation to their respective DMSO controls, and means and standard deviations were calculated using the Graphpad Prism software (Graphpad, La Jolla, USA).

T1 sequence (P11142 whole entry): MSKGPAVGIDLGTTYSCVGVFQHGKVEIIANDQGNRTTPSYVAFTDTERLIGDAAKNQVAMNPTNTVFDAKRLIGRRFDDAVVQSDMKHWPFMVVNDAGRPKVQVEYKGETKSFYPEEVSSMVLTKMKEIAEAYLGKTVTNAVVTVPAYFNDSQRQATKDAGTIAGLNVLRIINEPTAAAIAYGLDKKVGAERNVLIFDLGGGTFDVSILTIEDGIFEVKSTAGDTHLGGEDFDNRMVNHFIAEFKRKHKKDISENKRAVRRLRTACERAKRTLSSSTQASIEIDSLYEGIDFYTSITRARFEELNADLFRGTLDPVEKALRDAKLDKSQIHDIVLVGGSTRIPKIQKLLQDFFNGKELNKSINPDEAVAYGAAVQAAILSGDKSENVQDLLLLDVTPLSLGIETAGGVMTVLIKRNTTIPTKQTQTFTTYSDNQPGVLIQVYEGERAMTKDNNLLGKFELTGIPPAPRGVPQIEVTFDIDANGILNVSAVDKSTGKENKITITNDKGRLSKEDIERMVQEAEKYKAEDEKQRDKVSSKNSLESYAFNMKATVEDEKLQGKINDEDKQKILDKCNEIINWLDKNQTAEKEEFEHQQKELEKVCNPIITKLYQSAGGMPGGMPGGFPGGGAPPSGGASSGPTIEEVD

What does the source list for COc1ccc(C2C(C(=O)Nc3cccc(C)n3)c3ccccc3C(=O)N2c2ccccc2)cc1 (stereo not drawn) [trans-7b, trans-3-(4-Methoxyphenyl)-N-(6-methylpyridin-2-yl)-1-oxo-2-phenyl-1,2,3,4-tetrahydroisoquinoline-4-carboxamide]?
HSP73 constitutive expression level [1]: decreases; also recorded: reduced; effect on the apoptotic effect of the HSP90 inhibitor NVP-AUY922 (viability) [2]: strongly enhanced
